Reference: the NIST ThermoML archive (doi:10.1016/j.fluid.2011.03.030)
Numbers after ± are expanded uncertainties.

Columns and labels:
[1] = xn = mol fraction of the nth substance listed; conditions: 101 kPa, Liquid; for viscosity: Capillary tube (Ostwald / Ubbelohde) method; for mass density: Vibrating tube method
[2] = Liquid; for viscosity: Capillary tube (Ostwald / Ubbelohde) method; for mass density: Vibrating tube method; for vapor or sublimation pressure / Normal boiling temperature: Ebulliometric method (Recirculating still)

C1C[C@@H]2[C@H]3CC[C@H](C3)[C@@H]2C1 [exo-tetrahydrodicyclopentadiene] + CC1CCCCC1
[1]
Conditions | mass density, 303.15 K [kg/m3] | mass density, 308.15 K [kg/m3] | mass density, 313.15 K [kg/m3] | viscosity, 303.15 K [mPa·s] | viscosity, 308.15 K [mPa·s] | viscosity, 313.15 K [mPa·s]
x2 = 0 | 927.41 ± 0.45 | 923.48 ± 0.44 | 919.58 ± 0.44 | 2.522 ± 0.034 | 2.298 ± 0.031 | 2.107 ± 0.029
x2 = 0.1404 | 907.42 ± 0.39 | 903.45 ± 0.39 | 899.48 ± 0.39 | 2.047 ± 0.027 | 1.891 ± 0.025 | 1.736 ± 0.023
x2 = 0.2593 | 889.67 ± 0.35 | 885.65 ± 0.35 | 881.63 ± 0.35 | 1.754 ± 0.023 | 1.616 ± 0.021 | 1.475 ± 0.019
x2 = 0.3693 | 872.78 ± 0.32 | 868.72 ± 0.32 | 864.67 ± 0.31 | 1.502 ± 0.019 | 1.386 ± 0.018 | 1.275 ± 0.017
x2 = 0.4981 | 851.85 ± 0.28 | 847.73 ± 0.28 | 843.61 ± 0.28 | 1.258 ± 0.016 | 1.163 ± 0.015 | 1.078 ± 0.014
x2 = 0.5813 | 837.98 ± 0.26 | 833.82 ± 0.26 | 829.66 ± 0.26 | 1.113 ± 0.014 | 1.02 ± 0.013 | 0.963 ± 0.012
x2 = 0.6745 | 821.76 ± 0.25 | 817.58 ± 0.25 | 813.38 ± 0.25 | 0.975 ± 0.012 | 0.897 ± 0.011 | 0.862 ± 0.011
x2 = 0.763 | 805.84 ± 0.23 | 801.58 ± 0.23 | 797.33 ± 0.23 | 0.866 ± 0.011 | 0.798 ± 0.01 | 0.754 ± 0.009
x2 = 0.8469 | 790.22 ± 0.22 | 785.95 ± 0.22 | 781.66 ± 0.22 | 0.772 ± 0.01 | 0.711 ± 0.009 | 0.675 ± 0.008
x2 = 0.9245 | 775.47 ± 0.22 | 771.16 ± 0.22 | 766.83 ± 0.22 | 0.693 ± 0.009 | 0.644 ± 0.008 | 0.612 ± 0.008

CC1CCCCC1 [methylcyclohexane] + C1C[C@@H]2[C@H]3CC[C@H](C3)[C@@H]2C1
[1], x1 = 1
Conditions | mass density [kg/m3] | viscosity [mPa·s]
303.15 K | 760.65 ± 0.21 | 0.627 ± 0.008
308.15 K | 756.29 ± 0.21 | 0.581 ± 0.007
313.15 K | 751.93 ± 0.21 | 0.554 ± 0.007

CC1CCCCC1 [methylcyclohexane]
[2]
Conditions | mass density, 298.15 K [kg/m3] | mass density, 303.15 K [kg/m3] | mass density, 308.15 K [kg/m3] | mass density, 313.15 K [kg/m3] | viscosity, 298.15 K [mPa·s] | viscosity, 303.15 K [mPa·s] | viscosity, 308.15 K [mPa·s] | viscosity, 313.15 K [mPa·s]
101 kPa | – | 760.65 ± 0.21 | 756.29 ± 0.21 | 751.93 ± 0.21 | – | 0.627 ± 0.008 | 0.581 ± 0.007 | 0.554 ± 0.007
101.33 kPa | 765 ± 0.21 | – | – | – | 0.678 ± 0.007 | – | – | –

[2]
Conditions | vapor or sublimation pressure [kPa]
321.9 K | 17.91 ± 0.23
331.5 K | 25.77 ± 0.24
336.8 K | 31.22 ± 0.25
342.3 K | 37.99 ± 0.27
346.9 K | 44.45 ± 0.29
350.7 K | 50.35 ± 0.31
355.2 K | 58.09 ± 0.33
359.1 K | 65.61 ± 0.35
362.3 K | 72.29 ± 0.37
364.8 K | 79.09 ± 0.4
366.4 K | 85.13 ± 0.42
369.8 K | 92.76 ± 0.44
373.9 K | 100.7 ± 0.5

Conditions | Normal boiling temperature [°C]
[2] | 98.98 ± 0.03

C1C[C@@H]2[C@H]3CC[C@H](C3)[C@@H]2C1 [exo-tetrahydrodicyclopentadiene]
[2]
Conditions | mass density, 298.15 K [kg/m3] | mass density, 303.15 K [kg/m3] | mass density, 308.15 K [kg/m3] | mass density, 313.15 K [kg/m3] | viscosity, 298.15 K [mPa·s] | viscosity, 303.15 K [mPa·s] | viscosity, 308.15 K [mPa·s] | viscosity, 313.15 K [mPa·s]
101 kPa | – | 927.41 ± 0.45 | 923.48 ± 0.44 | 919.58 ± 0.44 | – | 2.522 ± 0.034 | 2.298 ± 0.031 | 2.107 ± 0.029
101.33 kPa | 931.4 ± 0.5 | – | – | – | 2.739 ± 0.029 | – | – | –

[2]
Conditions | vapor or sublimation pressure [kPa]
396 K | 16.64 ± 0.23
401.4 K | 20.62 ± 0.24
413.8 K | 30.3 ± 0.26
418.3 K | 34.79 ± 0.28
426.8 K | 44.86 ± 0.31
431.2 K | 50.7 ± 0.33
434.5 K | 55.76 ± 0.35
436.6 K | 59.2 ± 0.36
439 K | 63.22 ± 0.38
441.1 K | 66.63 ± 0.39
442.7 K | 69.49 ± 0.4
442.8 K | 69.77 ± 0.41
444.3 K | 72.58 ± 0.42
445.7 K | 75.11 ± 0.43
446.1 K | 75.89 ± 0.43
450 K | 83.92 ± 0.46
457.3 K | 101.1 ± 0.5

Conditions | Normal boiling temperature [°C]
[2] | 184.94 ± 0.04
